Laboratory results from US11401246B2, “Triazole glycolate oxidase inhibitors” (CANTERO THERAPEUTICS, INC., priority 2018, dated 2022).

Biological target: T1, human glycolate oxidase (hGO) (Homo sapiens, UniProt Q9UJM8)
T1 construct: His-tag (6 histidines, pET-15b) (N); made in house; host or cells: E. coli BL21 (DE3)
T1 sequence (Q9UJM8 1-370): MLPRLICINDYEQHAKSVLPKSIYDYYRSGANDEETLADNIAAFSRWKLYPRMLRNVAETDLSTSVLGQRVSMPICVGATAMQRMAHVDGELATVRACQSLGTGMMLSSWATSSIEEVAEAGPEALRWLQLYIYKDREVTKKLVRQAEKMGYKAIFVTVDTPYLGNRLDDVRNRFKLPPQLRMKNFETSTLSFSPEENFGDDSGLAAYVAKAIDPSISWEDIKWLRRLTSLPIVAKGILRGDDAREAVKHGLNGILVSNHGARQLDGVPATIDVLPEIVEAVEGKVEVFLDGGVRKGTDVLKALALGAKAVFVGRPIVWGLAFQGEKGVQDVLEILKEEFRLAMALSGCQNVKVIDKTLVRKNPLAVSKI
Assay: In vitro inhibition of human glycolate oxidase (enzymatic assay, HRP-coupled Trinder reaction);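 note: values are IC50 potency bins despite the % Inhibition label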
Format: biochemical
Conditions: recombinant hGO, 40 mM glycolic acid, pH 7, read at 515 nm, 1 minute after initiation of Trinder reaction; read-out: % Inhibition
Text: The catalytic reactions used for assaying glycolate oxidase activity in the presence of compounds according to the present disclosure are outlined in FIG. 2. Glycolate oxidase (GO)-catalyzed conversion of glycolate to glyoxylate (top reaction), with the concomitant reduction of the cofactor flavin mononucleotide (FMN), uses molecular oxygen (O2) for recovering its oxidative state, releasing hydrogen peroxide (H2O2). The Trinder reaction (bottom reaction), in which horseradish peroxidase (HRP) uses hydrogen peroxide, 4-aminoantipyrine and a phenol derivative (sulphonated DCIP) to generate a quinoneimine dye that is spectrophotometrically measured.
Human glycolate oxidase (hGO) expression. BL21 (DE3) E. coli transformed with recombinant pET-15b expression vector with the N-terminal His-tag human Hao1 cDNA was grown in LB medium in the presence of 0.1 mg/ml ampicillin. For purification of recombinant human glycolate oxidase (hGO) expressed in BL21 E. coli, bacteria pellets were thawed and re-suspended in 2 ml lysis buffer (50 mM NaH2PO4, 300 mM NaCl, 10 mM imidazole, 50 μM FMN, pH 7.5), and then treated for 30 minutes with 1 mM PMSF for protease inhibition, 0.1% Triton X-100 and 0.2 mg/ml lysozyme to break cellular membranes. After sonication, cells were centrifuged and the supernatant containing the total cellular extract (pre-column fraction) was loaded into a Ni-NTA agarose column and incubated for 30 minutes at 4° C. to allow binding of the 6 histidine tail of recombinant GO protein to the nickel ions. The column was washed with two bed volumes of lysis buffer with 20 mM imidazole to eliminate unbound proteins (wash fraction). GO was eluted using the same buffer with 300 mM imidazole. Fraction containing purified GO was dialyzed against 300 ml of dialysis buffer (50 mM NaH2PO4, 300 mM NaCl, pH 7.5) at 4° C. in agitation overnight, and then kept at 4° C. in darkness. Protein were quantified by the bicinchoninic acid (BCA) assay.
Enzymatic assays. Enzymatic activity of hGO was determined in the presence of glycolate as substrate (40 mM glycolic acid) and phosphate buffer (50 mM KPO4, 0.1 mM EDTA, pH 7). The production of glyoxylate was indirectly measured by the quantification of hydrogen peroxide formed during the first oxidation reaction. […] Enzymatic activity was calculated at 1 minute after initiation of the Trinder reaction.

Row | SMILES | IC50 [nM]
1 | O=C(O)c1nn[nH]c1Oc1ccc(-c2ccnc3ccccc23)cc1 [Example 83, 5-(4-(quinolin-4-yl)phenoxy)-1H-1,2,3-triazole-4-carboxylic Acid] | < 100
2 | Cc1cc(Oc2[nH]nnc2C(=O)O)ccc1-c1ccc(F)nc1C [Example 85, 5-(4-(6-fluoro-2-methylpyridin-3-yl)-3-methylphenoxy)-1H-1,2,3-triazole-4-carboxylic Acid] | 100 to 200
3 | O=C(O)c1[nH]nnc1Oc1ccc(C2CCC(F)(F)CC2)cc1 [Example 87, 5-(4-(4,4-difluorocyclohexyl)phenoxy)-1H-1,2,3-triazole-4-carboxylic Acid] | 100 to 200
4 | COc1cc(Oc2[nH]nnc2C(=O)O)ccc1Br [Example 89, 5-(4-bromo-3-methoxyphenoxy)-1H-1,2,3-triazole-4-carboxylic Acid] | < 100
5 | COc1ccc(-c2ccc(Oc3[nH]nnc3C(=O)O)cc2OC)c(OC)n1 [Example 91, 5-(4-(2,6-dimethoxypyridin-3-yl)-3-methoxyphenoxy)-1H-1,2,3-triazole-4-carboxylic Acid] | < 100
6 | O=C(O)c1nn[nH]c1Oc1ccc(-c2cccc3ccccc23)cc1 [Example 94, 5-(4-(1-naphthyl)phenoxy)-1H-1,2,3-triazole-4-carboxylic Acid] | < 100
7 | O=C(O)c1nn[nH]c1Oc1ccc(Br)c(C(F)(F)F)c1 [Example 95, 5-(4-bromo-3-(trifluoromethyl)phenoxy)-1H-1,2,3-triazole-4-carboxylic Acid] | > 200
8 | O=C(O)c1nn[nH]c1Oc1ccc(-c2cncc3ccccc23)cc1 [Example 96, 5-(4-(isoquinolin-4-yl)phenoxy)-1H-1,2,3-triazole-4-carboxylic Acid] | 100 to 200
9 | O=C(O)c1nn[nH]c1Oc1ccc(C2CCSCC2)cc1 [Example 97, 5-(4-(tetrahydro-2H-thiopyran-4-yl)phenoxy)-1H-1,2,3-triazole-4-carboxylic Acid] | 100 to 200
10 | O=C(O)c1nn[nH]c1Oc1ccc(-c2cccnc2F)cc1F [Example 98, 5-(2-fluoro-4-(2-fluoropyridin-3-yl)phenoxy)-1H-1,2,3-triazole-4-carboxylic Acid] | < 100
11 | COc1ccc(-c2ccc(Oc3[nH]nnc3C(=O)O)cc2)c(OC)n1 [Example 101, 5-(4-(2,6-dimethoxypyridin-3-yl)phenoxy)-1H-1,2,3-triazole-4-carboxylic Acid] | < 100
12 | CS(=O)(=O)Nc1ccc(-c2ccc(Oc3[nH]nnc3C(=O)O)cc2)cc1 [Example 102, 5-((4′-(methylsulfonamido)-[1,1′-biphenyl]-4-yl)oxy)-1H-1,2,3-triazole-4-carboxylic Acid] | < 100
13 | O=C(O)c1nn[nH]c1Oc1ccc(-c2ccc(C(F)(F)F)cc2)cc1F [Example 104, 5-((3-fluoro-4′-(trifluoromethyl)-[1,1′-biphenyl]-4-yl)oxy)-1H-1,2,3-triazole-4-carboxylic Acid] | 100 to 200
14 | CS(=O)(=O)c1ccc(-c2ccc(Oc3[nH]nnc3C(=O)O)c(F)c2)cc1 [Example 105, 5-((3-fluoro-4′-(methylsulfonyl)-[1,1′-biphenyl]-4-yl)oxy)-1H-1,2,3-triazole-4-carboxylic Acid] | 100 to 200
15 | CC(C)(C)c1ccc(-c2ccc(Oc3[nH]nnc3C(=O)O)c(F)c2)cc1 [Example 106, 5-((4′-(tert-butyl)-3-fluoro-[1,1′-biphenyl]-4-yl)oxy)-1H-1,2,3-triazole-4-carboxylic Acid] | 100 to 200
16 | CC(C)c1ccc(-c2ccc(Oc3[nH]nnc3C(=O)O)c(F)c2)cc1 [Example 107, 5-((3-fluoro-4′-isopropyl-[1,1′-biphenyl]-4-yl)oxy)-1H-1,2,3-triazole-4-carboxylic Acid] | 100 to 200
17 | CC(C)Cc1ccc(-c2ccc(Oc3[nH]nnc3C(=O)O)cc2)cc1 [Example 108, 5-((4′-isobutyl-[1,1′-biphenyl]-4-yl)oxy)-1H-1,2,3-triazole-4-carboxylic Acid] | > 200
18 | CC(C)c1ccc(-c2cccc(Oc3[nH]nnc3C(=O)O)c2)cc1 [Example 111, 5-((4′-isopropyl-[1,1′-biphenyl]-3-yl)oxy)-1H-1,2,3-triazole-4-carboxylic Acid] | 100 to 200
19 | CC(C)c1ccc(-c2ccc(Sc3[nH]nnc3C(=O)O)cc2)cc1 [Example 113, 5-((4′-isopropyl-[1,1′-biphenyl]-4-yl)thio)-1H-1,2,3-triazole-4-carboxylic Acid] | 100 to 200
20 | O=C(O)c1nn[nH]c1Oc1cccc(-c2ccc(C(F)(F)F)cc2)c1 [Example 114, 5-((4′-(trifluoromethyl)-[1,1′-biphenyl]-3-yl)oxy)-1H-1,2,3-triazole-4-carboxylic Acid] | 100 to 200
21 | O=C(O)c1nn[nH]c1Sc1ccc(-c2ccc(C(F)(F)F)cc2)cc1 [Example 115, 5-((4′-(trifluoromethyl)-[1,1′-biphenyl]-4-yl)thio)-1H-1,2,3-triazole-4-carboxylic Acid] | 100 to 200
22 | O=C(O)c1nn[nH]c1Oc1ccc(-c2ccc(-c3cccnc3)cc2)cc1 [Example 120, 5-[4[4-(3-pyridyl)phenyl]phenoxy]-1H-1,2,3-triazole-4-carboxylic Acid] | 100 to 200
23 | O=C(O)c1nn[nH]c1Oc1ccc(-c2ccc(C3CC3)cc2)cc1 [Example 121, 5-((4′-cyclopropyl-[1,1′-biphenyl]-4-yl)oxy)-1H-1,2,3-triazole-4-carboxylic Acid] | < 100

Second part, the molecule after the results:

Row | IC50 [nM] | SMILES
24 | < 100 | Cc1cc(-c2ccc(Oc3[nH]nnc3C(=O)O)cc2)cnc1F [Example 82, 5-(4-(6-fluoro-5-methylpyridin-3-yl)phenoxy)-1H-1,2,3-triazole-4-carboxylic Acid]
25 | 100 to 200 | Cc1ccc(-c2ccc(Oc3[nH]nnc3C(=O)O)cc2)cn1 [Example 84, 5-(4-(6-methylpyridin-3-yl)phenoxy)-1H-1,2,3-triazole-4-carboxylic Acid]
26 | 100 to 200 | Cc1cc(Oc2[nH]nnc2C(=O)O)ccc1-c1cnc(F)c(C)c1 [Example 86, 5-(4-(6-fluoro-5-methylpyridin-3-yl)-3-methylphenoxy)-1H-1,2,3-triazole-4-carboxylic Acid]
27 | < 100 | COc1ccc(-c2ccc(Oc3[nH]nnc3C(=O)O)cc2OC)cn1 [Example 90, 5-(3-methoxy-4-(6-methoxypyridin-3-yl)phenoxy)-1H-1,2,3-triazole-4-carboxylic Acid]
28 | < 100 | O=C(O)c1nn[nH]c1Oc1ccc(-c2ccnc(F)c2)cc1 [Example 92, 5-(4-(2-fluoropyridin-4-yl)phenoxy)-1H-1,2,3-triazole-4-carboxylic Acid]
29 | < 100 | O=C(O)c1nn[nH]c1Oc1ccc(-c2cccnc2Cl)cc1 [Example 93, 5-(4-(2-chloropyridin-3-yl)phenoxy)-1H-1,2,3-triazole-4-carboxylic Acid]
30 | < 100 | O=C(O)c1nn[nH]c1Oc1ccc(-c2cc(F)cnc2Cl)cc1 [Example 99, 5-(4-(2-chloro-5-fluoropyridin-3-yl)phenoxy)-1H-1,2,3-triazole-4-carboxylic Acid]
31 | < 100 | COc1ccc(-c2ccc(Oc3[nH]nnc3C(=O)O)cc2)cn1 [Example 100, 5-(4-(6-methoxypyridin-3-yl)phenoxy)-1H-1,2,3-triazole-4-carboxylic Acid]
32 | > 200 | CC(C)c1cccc(-c2ccc(Oc3[nH]nnc3C(=O)O)cc2)c1 [Example 109, 5-((3′-isopropyl-[1,1′-biphenyl]-4-yl)oxy)-1H-1,2,3-triazole-4-carboxylic Acid]
33 | 100 to 200 | O=C(O)c1nn[nH]c1Oc1ccc(-c2cc(F)c(F)c(F)c2)cc1 [Example 110, 5-((3′,4′,5′-trifluoro-[1,1′-biphenyl]-4-yl)oxy)-1H-1,2,3-triazole-4-carboxylic Acid]
34 | 100 to 200 | O=C(O)c1nn[nH]c1Oc1ccc(-c2cccc(C(F)(F)F)c2)cc1 [Example 112, 5-((3′-(trifluoromethyl)-[1,1′-biphenyl]-4-yl)oxy)-1H-1,2,3-triazole-4-carboxylic Acid]
